Where two headings read alike, the source gives them in different places.
Key:
Format in all cases: cell-based, human
[1] = test system: PC3 prostate cancer cells; test: Cytotoxic activity of oxovanadium(IV) compounds, PC3
Procedure: (§1) The cytotoxicity of oxovanadium (W) complexes listed in Table 6 were tested against 9 different human cancer cell lines was performed using the MTT (3-[4,5-dimethylthiazol-2-yl]-2,5-diphenyl tetrazolium bromide) assay (Boehringer Mannheim Corp., Indianapolis, Ind.) as described previously (20). Briefly, exponentially growing tumor cells were seeded into a 96-well plate at a density of 4×10^4cells/well and incubated with medium containing the oxovanadium(IV) compounds concentrations ranging from 0.1 to 250 μM for 48 hours at 37° C. in a humidified 5% CO2 atmosphere. Triplicate wells were used for each treatment. To each well, 10 μl of MTT (0.5 mg/ml final concentration) was added and the plates were incubated at 37° C. for 4 hours to allow MTT to form formazan crystals by reacting with metabolically active cells . The formazan crystals were solubilized overnight at 37° C. in a solution containing 10% SDS in 0.01 M HCl. The absorbence of each well was measured in a microplate reader (Labsystems) at 540 nm and a reference wavelength of 690 nm. To translate the OD540 values into the number of live cells in each well, the OD540 values were compared to those on standard OD540—versus—cell number curves generated for each cell line. The percent survival was calculated using the formula: % survival=Live cell number[test]/Live cell number [control]×100. The IC50 values were calculated by non-linear regression analysis using an Graphpad Prism software version 2.0 (Graphpad Software, Inc., San Diego, Calif.).

[2] = test system: U373 glioblastoma cells; test: Cytotoxic activity of oxovanadium(IV) compounds, U373
Procedure: as §1

[3] = test system: HS445 Hodgkin's lymphoma cells; test: MTT cytotoxicity assay of oxovanadium(IV) compounds, HS445; conditions: 48 hr
Procedure: as §1

[4] = test system: MOLT-3 cells; test: MTT cytotoxicity assay of oxovanadium(IV) compounds, MOLT-3; conditions: 48 hr
Procedure: as §1

[5] = test system: NTD1 testicular cancer cells; test: Cytotoxic activity of oxovanadium(IV) compounds, NTD1
Procedure: as §1

[6] = test system: NALM-6 cells; test: MTT cytotoxicity assay of oxovanadium(IV) compounds, NALM-6; conditions: 48 hr
Procedure: as §1

[7] = test system: Tera-2 testicular cancer cells; test: Cytotoxic activity of oxovanadium(IV) compounds, TERA-2
Procedure: as §1

[8] = test system: BT20 breast cancer cells; test: Cytotoxic activity of oxovanadium(IV) compounds, BT20
Procedure: as §1

[9] = test system: HS-SULTAN multiple myeloma cells; test: MTT cytotoxicity assay of oxovanadium(IV) compounds, HS-SULTAN; conditions: 48 hr
Procedure: as §1

[10] = test system: HL-60 cells; test: MTT cytotoxicity assay of oxovanadium(IV) compounds, HL-60; conditions: 48 hr
Procedure: as §1

[11] = test system: 64cp5 testicular cancer cells; test: Cytotoxic activity of oxovanadium(IV) compounds, 64cp5
Procedure: as §1

[12] = test system: 833-K testicular cancer cells; test: Cytotoxic activity of oxovanadium(IV) compounds, 833-K
Procedure: as §1

[13] = test system: U266BL multiple myeloma cells; test: MTT cytotoxicity assay of oxovanadium(IV) compounds, U266BL; conditions: 48 hr
Procedure: as §1

[14] = test system: ARH77 multiple myeloma cells; test: MTT cytotoxicity assay of oxovanadium(IV) compounds, ARH77; conditions: 48 hr
Procedure: as §1, with “Briefly, exponentially growing tumor cells were seeded into a 96-well plate at a density of 4×10^4cells/well and incubated with medium containing the oxovanadium(IV) compounds concentrations ranging from 0.1 to 250 μM for 48 hours at 37° C. in a humidified 5% CO2 atmosphere.” left out

[15] = read-out: Cytotoxic Activity PC3
[16] = read-out: Cytotoxic Activity U373
[17] = read-out: Cytotoxic Activity NTD1
[18] = read-out: Cytotoxic Activity TERA-2
[19] = read-out: Cytotoxic Activity BT20
[20] = read-out: Cytotoxic Activity 64cp5
[21] = read-out: Cytotoxic Activity 833-K

Compound | IC50 [1, 15] | IC50 [2, 16] | IC50 [3] | IC50 [4] | IC50 [5, 17] | IC50 [6] | IC50 [7, 18] | IC50 [8, 19] | IC50 [9] | IC50 [10] | IC50 [11, 20] | IC50 [12, 21] | IC50 [13] | IC50 [14] | other results
bis(5-chloro-1,10-phenanthroline)sulfatooxovanadium(IV) [Compound 31] | 4.6 µM | 6.3 µM | 5.2 ± 1.1 µM | 2.1 ± 0.2 µM | 50.1 µM | 1.6 ± 0.03 µM | 24.2 µM | 5.4 µM | 5.8 ± 0.6 µM | 5.3 ± 1.8 µM | > 100 µM | 4.6 µM | 3.7 ± 1.1 µM | – | –
bis(4,4′-dimethyl-2,2′-bipyridyl) sulfatooxovanadium(IV) [Compound 37] | – | 25.6 µM | 12.6 ± 3.3 µM | 4.8 ± 0.3 µM | > 100 µM | 3.9 ± 0.3 µM | > 100 µM | 15.7 µM | 11.4 ± 2.2 µM | 28.4 ± 3.8 µM | > 100 µM | 34.9 µM | 13.3 ± 5.1 µM | 58.3 ± 6.8 µM | –
(diaqua)(2,2′ bipyridyl)oxovanadium(IV) sulfate [Compound 34] | – | – | 41.7 ± 5.4 µM | 13.1 ± 1.1 µM | – | 14.9 ± 0.6 µM | – | – | 62.8 ± 2.3 µM | > 100 µM | – | – | 30.4 ± 7.8 µM | > 100 µM | IC50 [1]: 55.8 µM; IC50 [2]: 58.4 µM; IC50 [5]: > 100 µM; IC50 [7]: > 100 µM; IC50 [8]: 51.2 µM; IC50 [11]: > 100 µM; IC50 [12]: > 100 µM
(diaqua)(5-chloro-1,10-phenanthroline)oxovanadium(IV) sulfate [Compound 30] | 12.4 µM | 22.4 µM | 7.5 ± 2.5 µM | 3.4 ± 0.03 µM | > 100 µM | 3.6 ± 0.07 µM | 18.1 µM | 18.2 µM | 9.9 ± 5.4 µM | 15.3 ± 4.9 µM | 10.9 µM | 12.8 µM | 8.5 ± 1.2 µM | 30.3 ± 5.6 µM | –
bis(2,2′-bipyridyl)sulfatooxovanadium(IV) [Compound 35] | 56.2 µM | > 100 µM | 21.6 ± 4.3 µM | 14.2 ± 3.8 µM | > 100 µM | 15.5 ± 3.8 µM | > 100 µM | 70.8 µM | 35.4 ± 3.3 µM | 31.4 ± 6.9 µM | > 100 µM | 96.2 µM | 32.1 ± 5.2 µM | 26.8 ± 5.4 µM | –
bis(2,2′-bipyrimidine)sulfatooxovanadium(IV) [Compound 39] | – | > 100 µM | 98.4 ± 9.1 µM | 35.1 ± 4.7 µM | > 100 µM | 12.2 ± 2.3 µM | > 100 µM | > 100 µM | > 100 µM | > 100 µM | > 100 µM | > 100 µM | 99.1 ± 8.1 µM | > 100 µM | –
(diaqua)(5-nitro-1,10-phenanthroline)oxovanadium(IV) sulfate [Compound 32] | 12.9 µM | 20.5 µM | 9.1 ± 2.5 µM | 2.3 ± 0.3 µM | 20.2 µM | 4.1 ± 0.4 µM | 7.2 µM | 13.7 µM | 14.5 ± 2.5 µM | 4.9 ± 1.2 µM | 25.4 µM | 11.5 µM | 18.1 ± 5.1 µM | 5.4 ± 1.5 µM | –
CC(=O)c1cc(Br)ccc1[O][V](=[O])[O]c1ccc(Br)cc1C(C)=O [Compound 40, bis(5′-bromo-2′-hydroxyacetophenone)oxovanadium(IV)] | – | > 100 µM | 96.5 ± 6.4 µM | 41.8 ± 3.9 µM | > 100 µM | 17.4 ± 0.9 µM | 35.4 µM | > 100 µM | 78.4 ± 5.8 µM | > 100 µM | > 100 µM | > 100 µM | 98.1 ± 6.7 µM | > 100 µM | –
bis(1,10-phenanthroline)sulfatooxovanadium(IV) [Compound 27] | 10.8 µM | 6.8 µM | 5.8 ± 1.2 µM | 1.4 ± 0.04 µM | > 100 µM | 0.97 ± 0.1 µM | 37.6 µM | 7.2 µM | 4.4 ± 0.8 µM | 4.6 ± 1.4 µM | 18.5 µM | 7.5 µM | 2.2 ± 0.6 µM | 3.3 ± 0.8 µM | –
bis(5-nitro-1,10-phenanthroline)sulfatooxovanadium(IV) [Compound 33] | 6.1 µM | 7.2 µM | 2.3 ± 0.6 µM | 1.4 ± 0.06 µM | 9.1 µM | 0.7 ± 0.01 µM | 2.6 µM | 5.6 µM | 13.8 ± 3.6 µM | 2.6 ± 0.4 µM | 5.9 µM | 1.1 µM | 7.2 ± 1.1 µM | 5.7 ± 1.3 µM | –
(diaqua)(4,4′-dimethyl-2,2′-bipyridyl)oxovanadium(IV) sulfate [Compound 36] | – | > 100 µM | 27.8 ± 3.4 µM | 8.2 ± 0.5 µM | > 100 µM | 8.5 ± 0.5 µM | > 100 µM | > 100 µM | 65.1 ± 6.1 µM | 38.6 ± 4.5 µM | > 100 µM | > 100 µM | 38.4 ± 3.2 µM | > 100 µM | –
(diaqua)(2,2′-bipyrimidine)oxovanadium(IV) sulfate [Compound 38] | – | > 100 µM | 96.5 ± 8.6 µM | 27.7 ± 2.5 µM | > 100 µM | 12.1 ± 1.6 µM | 74.3 µM | > 100 µM | > 100 µM | > 100 µM | > 100 µM | > 100 µM | 91.2 ± 9.9 µM | > 100 µM | –

— patent US7091351B2, “Vanadium compounds for treating cancer” (Parker Hughes Institute, priority 1998, dated 2006)
